Where two headings read alike, the source gives them in different places.
Columns and labels:
[1] = Absorption test of cilostazol into the large intestine (Test Example 1); type: in vivo, rats
Protocol: Absorption Test of Cilostazol into the Large Intestine
(§1) Preparations of Examples 1, 2, 4 and 5 and Comparative Example 1 were directly administered in a large intestine loop of female rats (3 or 4 rats per group) in the amount of 100 mg/kg calculated on the basis of cilostazol (CLZ). Then, blood was collected with a lapse of time and cilostazol concentration in blood was measured. An average cilostazol concentration in blood is shown in Table 10 and pharmacokinetic parameters after administration are shown in Table 11.

[2] = Cilostazol dissolution test, Paddle method, 0.3% SLS (Test Example 2); type: physicochemical
Protocol: Preparations of Examples 1, 2 and 4 and Comparative Example 1 were weighed in the amount of 100 mg calculated on the basis of cilostazol and subjected to a dissolution test under the following conditions. To evaluate the dissolution rate, the dissolution percentage was compared after two minutes had passed since the beginning of the test.
Conditions of Dissolution Test
Dissolution test solution: 900 mL of aqueous 0.3% sodium lauryl sulfate solution
Amount of sample: amount corresponding to 100 mg of cilostazol per vessel

[3] = Absorption test at upper and lower portions of the digestive tract (Test Example 8); type: in vivo; details: rats; for AUC: read-out: AUCO-2 hr
Protocol: as §1
Absorption Test of Slightly Soluble Drug at Upper and Lower Portions of the Digestive Tract.
In the same manner as in Test Example 1, preparations of Example 2 and Comparative Examples 1 and 5 were directly administered in the duodenum and the large intestine of rats. Then, blood was collected with a lapse of time and cilostazol concentration in blood was measured.

[4] = rat, blood, female rats, large intestine loop, 100 mg/kg as CLZ
[5] = directly administered in the duodenum

concentration at 0 hr ([1]; rat, blood, other: directly administered in a large intestine loop, female rats, direct administration in large intestine loop, 100 mg/kg as CLZ, time after administration 0 hr) [ng/mL]	concentration at 0.083 hr ([1]; rat, blood, other: directly administered in a large intestine loop, female rats, large intestine loop, 100 mg/kg as CLZ, 0.083 hr after administration) [ng/mL]	concentration at 0.25 hr ([1]; rat, blood, other: directly administered in a large intestine loop, female rats, large intestine loop, 100 mg/kg as CLZ, 0.25 hr after administration) [ng/mL]	concentration at 0.5 hr ([1]; rat, blood, other: directly administered in a large intestine loop, female rats, large intestine loop, 100 mg/kg as CLZ, 0.5 hr after administration) [ng/mL]	concentration at 1 hr ([1]; rat, blood, other: directly administered in a large intestine loop, female rats, large intestine loop, 100 mg/kg as CLZ, 1.0 hr after administration) [ng/mL]	concentration at 2 hr ([1]; rat, blood, other: directly administered in a large intestine loop, female rats, large intestine loop, 100 mg/kg as CLZ, 2.0 hr after administration) [ng/mL]	Cmax [1, 4] [ng/mL]	Tmax [1, 4] [h]	AUC(0-t) ([1]; rat, blood, female rats, large intestine loop, 100 mg/kg as CLZ, read-out: AUC0–2 hr) [ng·h/mL]	dissolution rate / dissolution percentage (in words) ([2]; 0.3% SLS, Paddle 75 rpm)	Dissolution percentage after 2 minutes ([2]; 900 mL aqueous 0.3% sodium lauryl sulfate, Paddle method 75 rpm, 100 mg cilostazol per vessel) [%]	AUC ([3]; female, rat, blood, 100 mg/kg, directly administered in the duodenum) [ng·h/mL]	Cmax ([3]; female, rat, blood, 100 mg/kg, directly administered in the duodenum, read-out: Cmax) [ng/mL]	AUCO-2 hr ([3]; directly administered in the large intestine) [ng·h/mL]	AUC ([3]; female, rat, blood, 100 mg/kg, directly administered in the large intestine) [ng·h/mL]	Cmax ([3]; female, rat, blood, 100 mg/kg, directly administered in the large intestine, read-out: Cmax) [ng/mL]	AUCO-2 hr [3, 5] [ng·h/mL]	Cmax [3, 5] [ng/mL]	SMILES	blood concentration attained (in words) ([1]; rats, large intestine, within two hours after administration)
0	15	26	51	100	170	170	2	186	low dissolution rate	22.7	2590	1900	186	–	–	–	–	O=C1CCc2cc(OCCCCc3nnnn3C3CCCCC3)ccc2N1 [Comp. Example 1, cilostazol]	sufficient blood concentration was not obtained
–	–	–	–	–	–	–	–	–	–	–	–	–	–	236	168	3682	3002	O=C1CCc2cc(OCCCCc3nnnn3C3CCCCC3)ccc2N1 [Comp. Example 5, cilostazol]	–

From patent US7144585B1, “Cilostazol preparation” (Otsuka Pharmaceutical Co., Ltd., priority 1999, dated 2006)
